Assay results: ChEMBL document CHEMBL4616697, “Discovery of Adamantane Carboxamides as Ebola Virus Cell Entry and Glycoprotein Inhibitors” (ACS Med Chem Lett, 2020)
Converted amounts (≈) assume the structure as drawn. The source made the active and inactive calls. The calls are words filed in the database; no cut-off is given here.

Tests used:
[1] = Inhibition of glycoprotein in VSV pseudotyped Ebolavirus infected in African green monkey Vero cells assessed as reduction in virus entry incubated for 24 hrs by luciferase reporter gene assay; format: cell-based
[2] = Metabolic stability in Cynomolgus monkey liver microsomes assessed as parent compound remaining at 1 uM pretreated for 30 mins followed by NADPH addition and measured after 60 mins by LC-MS/MS analysis; format: ADME, Macaca fascicularis, Microsome; details: read-out: Stability
[3] = Cytotoxicity against African green monkey Vero E6 cells assessed as reduction in cell viability incubated for 10 days by neutral red dye based spectrophotometry analysis; design: species or system Vero C1008; details: chlorocebus sabaeus
[4] = Metabolic stability in mouse liver microsomes assessed as parent compound remaining at 1 uM pretreated for 30 mins followed by NADPH addition and measured after 60 mins by LC-MS/MS analysis; format: ADME, Microsome; details: read-out: Stability
Ebolavirus [5] = assay: Antiviral activity against wild type Ebolavirus infected in African green monkey Vero E6 cells assessed as inhibition of viral entry compound treated with primary viral infected cells for 60 mins and after 3 days post-infection measured following 10 days of compound incubation with fresh cells infected with primary culture supernatants by virus yield reduction assay; format: functional; details: Orthoebolavirus, Vero C1008
[6] = Selectivity index, ratio of CC50 for African green monkey Vero E6 cells assessed as reduction in cell viability incubated for 10 days by neutral red dye based spectrophotometry analysis to EC90 for wild type Ebolavirus infected in African green monkey Vero E6 cells assessed as reduction in viral replication by virus yield reduction assay; format: toxicity, Vero C1008; details: read-out: Selectivity Index
[7] = Metabolic stability in human liver microsomes assessed as parent compound remaining at 1 uM pretreated for 30 mins followed by NADPH addition and measured after 60 mins by LC-MS/MS analysis; format: ADME, Microsome; details: for Stability: microsomes, 1 h, 1 µM; for remaining at 1 h, 1 µM: liver microsomes, read-out: Stability
[8] = Aqueous solubility of compound in PBS at pH 7.4 measured after 2 hrs by spectrophotometry analysis; format: physicochemical
Ebolavirus [9] = assay: Antiviral activity against wild type Ebolavirus infected in African green monkey Vero cells assessed as reduction in plaque forming units incubated for 10 days by crystal violet staining based assay; format: functional, organism-based; details: Orthoebolavirus, 240 h
[10] = Metabolic stability in guinea pig liver microsomes assessed as parent compound remaining at 1 uM pretreated for 30 mins followed by NADPH addition and measured after 60 mins by LC-MS/MS analysis; format: ADME, Cavia porcellus, Microsome; details: read-out: Stability
[11] = Metabolic stability in rat liver microsomes assessed as parent compound remaining at 1 uM pretreated for 30 mins followed by NADPH addition and measured after 60 mins by LC-MS/MS analysis; format: ADME, Microsome; details: read-out: Stability
[12] = Metabolic stability in dog liver microsomes assessed as parent compound remaining at 1 uM pretreated for 30 mins followed by NADPH addition and measured after 60 mins by LC-MS/MS analysis; format: ADME, Canis lupus familiaris, Microsome; details: read-out: Stability
[13] = Kinetic aqueous solubility of compound in PBS at pH 6.4 to 7.5 measured after 2 hrs by spectrophotometry analysis; format: physicochemical; details: read-out: Kinetic_solubility
Vero [14] = assay: Inhibition of glycoprotein in VSV pseudotyped Ebolavirus infected in African green monkey Vero cells assessed as reduction in virus entry at 5 uM incubated for 24 hrs by luciferase reporter gene assay relative to control; format: cell-based
Vero [15] = assay: Inhibition of glycoprotein in pseudotyped Vesicular stomatitis virus infected in African green monkey Vero cells assessed as reduction in virus entry at 5 uM incubated for 24 hrs by luciferase reporter gene assay; format: cell-based

Compound	solubility kinetic at 2 h [13]	EC50 ([1]; Orthoebolavirus, Vero, 24 h)	also measured
CC12CC3CC(C(=O)N[C@H]4CC[C@H](N)CC4)(C1)CC(c1ccccc1)(C3)C2 (stereo in doubt; 39)	–	–	EC50 ([1]; vero): 140 nM
C[C@]12C[C@@H]3C[C@](C(=O)NC4CCNCC4)(C1)C[C@@](c1ccccc1)(C3)C2	–	–	remaining at 1 h, 1 µM [2]: 83%; CC50 at 240 h [3]: 71000 nM; remaining at 1 h, 1 µM [4]: 86%; EC50 ([1]; vero): 28 nM; EC90 (Ebolavirus [5]): 2100 nM; selectivity ratio at 240 h [6]: 34; Stability [7]: 81%; solubility at 2 h [8]: > 20 mg/mL
CC12CC3CC(C(=O)N[C@H]4CC[C@H](N)CC4)(C1)CC(c1ccccc1)(C3)C2 (stereo in doubt; 38)	–	–	EC50 (Ebolavirus [9]): 240 nM; remaining at 1 h, 1 µM [10]: 100%; remaining at 1 h, 1 µM [11]: 63%; remaining at 1 h, 1 µM [2]: 89%; CC50 at 240 h [3]: 58000 nM; remaining at 1 h, 1 µM [4]: 74%; EC50 ([1]; vero): 14 nM; remaining at 1 h, 1 µM [12]: 96%; EC90 (Ebolavirus [5]): 750 nM; selectivity ratio at 240 h [6]: 77; Stability [7]: 100%; solubility at 2 h [8]: > 20 mg/mL
CC12CC3CC(C(=O)N[C@H]4CC[C@H](CN)CC4)(C1)CC(c1ccccc1)(C3)C2 (mixture of isomers)	> 100 µM	–	EC50 ([1]; vero): 30 nM; remaining at 1 h, 1 µM [7]: 75%
CC12CC3CC(C(=O)N[C@H]4CC[C@H](CN)CC4)(C1)CC(c1ccccc1)(C3)C2 (stereo in doubt; 41)	–	–	EC50 ([1]; vero): 74 nM
CN1CCC(NC(=O)C23CC4CC(C2)CC(c2ccccc2)(C4)C3)CC1	> 100 µM	160 nM	–
O=C(NC1CCNCC1)C12CC3CC(C1)CC(c1ccc(Cl)cc1)(C3)C2	> 100 µM	190 nM	–
CC12CC3CC(C(=O)NCCN)(C1)CC(c1ccccc1)(C3)C2 (racemic)	> 100 µM	250 nM	–
COc1ccc(C23CC4CC(CC(C(=O)NC5CCNCC5)(C4)C2)C3)cc1	> 100 µM	380 nM	–
O=C(NC1CCN(Cc2ccccc2)CC1)C12CC3CC(CC(C3)C1)C2	> 100 µM	3900 nM	inhibition (Vero [14]): > 50%; inhibition (Vero [15]): inactive
O=C(NC1CCNCC1)C12CC3CC(C1)CC(c1ccc(F)cc1)(C3)C2	> 100 µM	310 nM	–
CC12CC3CC(C(=O)N[C@H]4[C@@H]5CNC[C@@H]54)(C1)CC(c1ccccc1)(C3)C2 (mixture of isomers)	61 µM (≈ 21.4 µg/mL)	120 nM	–
O=C(NC1CCNCC1)NC12CC3CC(C1)CC(c1ccccc1)(C3)C2	> 100 µM	> 1000 nM	–
O=C(NC12CC3CC(C1)CC(c1ccccc1)(C3)C2)C1CCNCC1	> 100 µM	> 1000 nM	–
O=C(CC12CC3CC(C1)CC(c1ccccc1)(C3)C2)NC1CCNCC1	> 100 µM	490 nM	–
CC12CC3CC(C(=O)N[C@H]4CC[C@@H](N)CC4)(C1)CC(c1ccccc1)(C3)C2 (mixture of isomers)	> 100 µM	110 nM	remaining at 1 h, 1 µM [7]: 87%
CC12CC3CC(C(=O)NCC4CCNCC4)(C1)CC(c1ccccc1)(C3)C2 (racemic)	> 100 µM	420 nM	–
O=C(N1CCc2ccccc2C1)C12CC3CC(C1)CC(c1ccccc1)(C3)C2	> 100 µM	2300 nM	–
CC12CC3CC(C(=O)NC4CCNCC4)(C1)CC(c1ccccc1)(C3)C2 (racemic)	> 100 µM	–	EC50 ([1]; vero): 43 nM; remaining at 1 h, 1 µM [7]: 75%
CC12CC3CC(C(=O)NC4CNC4)(C1)CC(c1ccccc1)(C3)C2 (racemic)	> 100 µM	280 nM	–
C[C@H]1C[C@H](NC(=O)C23CC4CC(C)(C2)CC(c2ccccc2)(C4)C3)CCN1 (mixture of isomers)	> 100 µM	46 nM	remaining at 1 h, 1 µM [7]: 75%
